Test results: publication PMC4068353, “Characterization of 14-3-3-ζ Interactions with Integrin Tails” (Journal of Molecular Biology, 2013)
Entries after “also recorded” stand apart in the source; their conditions may differ.

Columns and labels:
14-3-3-ζ [1] = target: T1, 14-3-3-ζ (Homo sapiens, UniProt P63104); assay: ITC of integrin tail fragments with 14-3-3-ζ; type: binding; settings: 298 K, pH 6.5, fragment in cell, 14-3-3-ζ in syringe
T1 construct: His10 (cleaved yes); made in house
T1 sequence (P63104 1-245): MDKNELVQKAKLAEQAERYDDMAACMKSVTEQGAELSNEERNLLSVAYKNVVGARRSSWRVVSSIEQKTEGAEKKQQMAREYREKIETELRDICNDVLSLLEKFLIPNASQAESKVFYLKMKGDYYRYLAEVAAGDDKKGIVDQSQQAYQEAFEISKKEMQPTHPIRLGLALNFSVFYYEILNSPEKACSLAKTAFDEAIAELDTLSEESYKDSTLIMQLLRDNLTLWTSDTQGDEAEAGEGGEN
Experimental: Phosphorylated α4 synthetic peptides were purchased from GL Biochem Ltd. (Shanghai). All recombinant proteins and synthetic peptides were prepared in 20 mM sodium phosphate and 50 mM NaCl (pH 6.5), and concentrations were determined by UV absorbance at 280 nm. ITC experiments using a VP-ITC200 instrument (MicroCal) were performed at 298 K as follows: the cell (volume, ~ 200 μl) contained the different integrin tail fragments, and the syringe (volume, ~ 40 μl) contained 14-3-3-ζ. A first injection of 2 μl was followed by 15 injections of 2.5 μl, with a stirring speed of 1500 rpm and a delay between injections of 180 s. A blank titration was performed by injecting 14-3-3-ζ into buffer to take the heat of dilution into account. Experiments were repeated twice for each sample. Raw data were processed and fitted with MicroCal Origin software using a one-site model where the error function is calculated as the sum of the squared deviations between the data and the model curve.

14-3-3-ζ [2] = target: T1, 14-3-3-ζ; assay: Fluorescence polarization titration of fluorescein-labeled integrin tails with 14-3-3-ζ; type: binding; settings: 1 μM, ex 485 nm, em 520 nm; for binding to 14-3-3-ζ by fluorescence polarization, in words: fluorescein-labeled tail
Experimental: Fig. 6 Fluorescence polarization and ITC of interactions between integrin tails and 14-3-3-ζ. (a) Fluorescence polarization titrations of fluorescein-labeled β1A, β3 and α4 with 14-3-3-ζ. […] (b–d) ITC sensorgram of an in-cell 200 μM β1A, β2 (same as in Fig. 5a) or β3 samples injected with 2 mM 14-3-3-ζ.
For fluorescence polarization experiments, integrin tails were labeled with fluorescein-5-maleimide (Invitrogen) linked to an engineered C-terminal Cys residue. Measurements were performed using 96-well microplates (Corning) in a PHERAstar FS microplate reader (BMG Labtech). Fluorescein-labeled integrin tails at 1 μM concentration were excited at 485 nm, and polarization was recorded at 520 nm.

14-3-3-ζ [3] = target: T1, 14-3-3-ζ; assay: 15N-1H HSQC NMR titration of 15N-labeled integrin tails with unlabeled 14-3-3-ζ; type: binding; settings: 15N-labeled tail 0.1 mM, equimolar unlabeled 14-3-3-ζ; NMR buffer pH 6.5, 25 °C
Experimental: (§1) Samples were prepared in NMR buffer (pH 6.5) with 5% D2O, and experiments were performed at 25 °C. Titration experiments were collected on a 500-MHz spectrometer using a water flip-back-embedded gradient enhanced ^15N–^1H HSQC pulse sequence.[46] For the assignment of the α4 and β2 backbone resonances, ^15N–^13C integrin tails of 0.6 mM concentration were used to measure CBCA(CO)NH and CBCANH experiments on a Bruker 500-MHz instrument equipped with a cryogenic probe head. Data were processed using NMRPipe[47] and analyzed with the programs CARA/XEASY[48] or CCPN Analysis.[49]

[4] = test system: paxillin (residues 1–323); assay: NMR test of α4 integrin tail interaction with paxillin N-terminal region; type: binding; settings: paxillin residues 1–323 with all LD motifs
Experimental: (§2) The interactions of α4 and 14-3-3-ζ with paxillin were also investigated. The association of paxillin with α4 has been detected using pull-down experiments with glutathione S-transferase fusion proteins[22,32,33] and, very recently, by NMR in a study that also reports the solution structure of the α4 integrin tail.[34] […] The possibility that a paxillin/14-3-3-ζ association depends on phosphorylation was also assessed. The ELM (eukaryotic linear motif) server[35] indicated three putative 14-3-3 binding motifs in the paxillin N-terminus; of these, only one has been reported to be phosphorylated in vivo[36] (Supplementary Fig. 1a). […] The recent report of paxillin binding to α4 detected by NMR used shorter paxillin fragments than us, covering the LD2–LD4 region.[34] It is possible that, in the whole N-terminal paxillin, the α4 interaction sites are masked, which would explain the absence of an interaction in our studies.
Samples were prepared in NMR buffer (pH 6.5) with 5% D2O, and experiments were performed at 25 °C. Titration experiments were collected on a 500-MHz spectrometer using a water flip-back-embedded gradient enhanced ^15N–^1H HSQC pulse sequence.[46] […] Data were processed using NMRPipe[47] and analyzed with the programs CARA/XEASY[48] or CCPN Analysis.[49]

[5] = test system: paxillin (residues 1–323); assay: ITC test of pairwise interaction with paxillin N-terminal region; type: binding
Experimental: as §2
Phosphorylated α4 synthetic peptides were purchased from GL Biochem Ltd. (Shanghai). All recombinant proteins and synthetic peptides were prepared in 20 mM sodium phosphate and 50 mM NaCl (pH 6.5), and concentrations were determined by UV absorbance at 280 nm. […] Raw data were processed and fitted with MicroCal Origin software using a one-site model where the error function is calculated as the sum of the squared deviations between the data and the model curve.

14-3-3-ζ S58A = assay: NMR binding of 14-3-3-ζ variant S58A to labeled integrin tail; settings: labeled β1A
Text: (§3) To gain further insight into the β1A/14-3-3-ζ association, we investigated the effects of 14-3-3-ζ substitutions on binding to β1A integrin tail. It has been reported that the substitution S58A in 14-3-3-β abolishes the β1A interaction.[38] S58 regulates the dimeric state of 14-3-3,[39] but it is not involved directly in binding to phospho-peptides. The binding of 14-3-3-ζ variants S58A and S58E to labeled β1A was studied using NMR. […] A similar result was obtained with the β2 integrin tail (data not shown).
as §1

14-3-3-ζ S58E = assay: NMR binding of 14-3-3-ζ variant S58E to labeled integrin tail; settings: labeled β1A
Text: as §3, §1

Row | Substance | binding to 14-3-3-ζ by ITC, in words (14-3-3-ζ [1]) | binding to 14-3-3-ζ by fluorescence polarization, in words (14-3-3-ζ [2]) | change of integrin tail resonances on addition of 14-3-3-ζ, in words (14-3-3-ζ [3]) | interaction with paxillin by NMR, in words [4] | interaction with paxillin by ITC, in words [5] | Kd (14-3-3-ζ [2]; fluorescence polarization, tail labeled with fluorescein-5-maleimide at engineered C-terminal Cys, single-site model) | change of integrin tail resonance intensity with 14-3-3-ζ S58A compared to wt, in words (14-3-3-ζ S58A) | change of integrin tail resonance intensity with 14-3-3-ζ S58E, in words (14-3-3-ζ S58E)
1 | GPLGSKAGFFKRQYKSILQEENRRDSWSYINSKSNDD [α4 wt, recombinant α4 integrin cytoplasmic tail, residues 1001–1032] | a Kd could not be determined by ITC; also recorded: the interaction is weak, in the millimolar range | No binding was detected | significant decrease in α4 amide resonance intensities | no specific interaction | no pairwise interaction was detected by ITC | – | – | –
2 | GS KLLMIIHDRREFAKFEKEKMNAKWDTGENPIYKSAVTTVVNPKYEGK (GSKLLMIIHDRREFAKFEKEKMNAKWDTGENPIYKSAVTTVVNPKYEGK; left off: His10, N-terminal, cleaved) [β1A wt, recombinant β1A integrin tail, residues 752–798] | – | clearly binds | intensity reduction for several resonances | – | – | 95 ± 16 µM | significant reduction in β1A resonance intensity change | the intensities change even less
